According to ChEMBL document CHEMBL1201861, “Genomics of Drug Sensitity in Cancer screening data, Wellcome Trust Sanger Institute”:

How the values were obtained:
Experiment in all cases: cells
D-423MG = type: functional, cell-based; conditions: Homo sapiens
Description: SANGER: Inhibition of human D-423MG cell growth in a cell viability assay.

D-566MG = type: functional, cell-based; conditions: Homo sapiens
EPLC-272H = type: functional, cell-based; conditions: Homo sapiens
Description: SANGER: Inhibition of human EPLC-272H cell growth in a cell viability assay.

HCT-15 = type: functional, cell-based, Homo sapiens; conditions: Homo sapiens, HCT-15;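 note: cell viability readout, IC50 reflecting suppression of HCT-15 cell growth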
Description: SANGER: Inhibition of human HCT-15 cell growth in a cell viability assay.

HuO9 = type: functional, cell-based, Homo sapiens; conditions: Homo sapiens, HuO9;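 note: growth inhibition of HuO9 cells, read out with a cell viability assay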
Description: SANGER: Inhibition of human HuO9 cell growth in a cell viability assay.

LU-135 = type: functional, cell-based; conditions: Homo sapiens
Description: SANGER: Inhibition of human LU-135 cell growth in a cell viability assay.

MEL-JUSO = type: functional, cell-based, Homo sapiens; conditions: Homo sapiens, MEL-JUSO;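 note: growth inhibition of human MEL-JUSO cells, read out with a cell viability assay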
Description: SANGER: Inhibition of human MEL-JUSO cell growth in a cell viability assay.

NCI-H1573 = type: functional, cell-based; conditions: Homo sapiens;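 note: growth inhibition of NCI-H1573 cells, read out with a cell viability assay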
Description: SANGER: Inhibition of human NCI-H1573 cell growth in a cell viability assay.

NCI-H2029 = type: functional, cell-based; conditions: Homo sapiens;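 note: Read-out is a viability assay on the cultured cells, and IC50 is the concentration that suppresses cell growth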
Description: SANGER: Inhibition of human NCI-H2029 cell growth in a cell viability assay.

NCI-H2291 = type: functional, cell-based; conditions: Homo sapiens
Description: SANGER: Inhibition of human NCI-H2291 cell growth in a cell viability assay.

RH-18 = type: functional, cell-based; conditions: Homo sapiens, Rh18;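 note: growth inhibition of human RH-18 cells, read out with a cell viability assay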
Description: SANGER: Inhibition of human RH-18 cell growth in a cell viability assay.

23132-87 = type: functional, cell-based, Homo sapiens; conditions: Homo sapiens
Description: SANGER: Inhibition of human 23132-87 cell growth in a cell viability assay.

TI-73 = type: functional, cell-based; conditions: Homo sapiens;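 note: cell viability assay measuring how much compounds suppress growth of the cultured cell line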
Description: SANGER: Inhibition of human TI-73 cell growth in a cell viability assay.

ZR-75-30 = type: functional, cell-based; conditions: Homo sapiens;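 note: growth inhibition of ZR-75-30 cells, measured with a cell viability readout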
Description: SANGER: Inhibition of human ZR-75-30 cell growth in a cell viability assay.

CFPAC-1 = type: functional, cell-based; conditions: Homo sapiens;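 note: cell viability readout used to gauge suppression of CFPAC-1 cell proliferation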
Description: SANGER: Inhibition of human CFPAC-1 cell growth in a cell viability assay.

| SMILES | IC50 (D-423MG) | IC50 (D-566MG) | IC50 (EPLC-272H) | IC50 (HCT-15) | IC50 (HuO9) | IC50 (LU-135) | IC50 (MEL-JUSO) | IC50 (NCI-H1573) | IC50 (NCI-H2029) | IC50 (NCI-H2291) | IC50 (RH-18) | IC50 (23132-87) | IC50 (TI-73) | IC50 (ZR-75-30) | IC50 (CFPAC-1) |
| --- | --- | --- | --- | --- | --- | --- | --- | --- | --- | --- | --- | --- | --- | --- | --- |
| CN(C)C/C=C/C(=O)Nc1cc2c(Nc3ccc(F)c(Cl)c3)ncnc2cc1O[C@H]1CCOC1 [AFATINIB] | > 0.5 µM | > 0.5 µM | > 0.5 µM | > 0.5 µM | > 0.5 µM | > 0.5 µM | > 0.5 µM | > 0.5 µM | > 0.5 µM | > 0.5 µM | > 0.5 µM | 0.319 µM | 0.147 µM | 0.0955 µM | > 0.5 µM |
| O=C(NOCC1CC1)c1ccc(F)c(F)c1Nc1ccc(I)cc1Cl [CI-1040] | 3.08 µM | 6.54 µM | 5 µM | > 10 µM | > 10 µM | 7.56 µM | 5.74 µM | > 10 µM | > 10 µM | 1.33 µM | > 10 µM | 5.17 µM | > 10 µM | > 10 µM | > 10 µM |
| Nc1ccn([C@@H]2O[C@H](CO)[C@@H](O)[C@@H]2O)c(=O)n1 [CYTARABINE] | 0.299 µM | 0.269 µM | 1.45 µM | > 2 µM | > 2 µM | > 2 µM | 0.0858 µM | > 2 µM | > 2 µM | > 2 µM | > 2 µM | 0.319 µM | 0.613 µM | > 2 µM | 1.06 µM |
| CC(=O)O[C@@]12CO[C@@H]1C[C@H](O)[C@@]1(C)C(=O)[C@H](O)C3=C(C)[C@@H](OC(=O)[C@H](O)[C@@H](NC(=O)OC(C)(C)C)c4ccccc4)C[C@@](O)([C@@H](OC(=O)c4ccccc4)[C@H]21)C3(C)C [DOCETAXEL] | 0.0013 µM | 0.000182 µM | 0.00111 µM | – | 0.00346 µM | > 0.01 µM | 0.00639 µM | 0.00607 µM | > 0.01 µM | > 0.01 µM | > 0.01 µM | 0.00155 µM | 0.00144 µM | > 0.01 µM | > 0.01 µM |
| CN(Cc1cnc2nc(N)nc(N)c2n1)c1ccc(C(=O)N[C@@H](CCC(=O)O)C(=O)O)cc1 [METHOTREXATE] | > 0.2 µM | > 0.2 µM | > 0.2 µM | – | > 0.2 µM | > 0.2 µM | > 0.2 µM | > 0.2 µM | > 0.2 µM | > 0.2 µM | > 0.2 µM | – | > 0.2 µM | > 0.2 µM | > 0.2 µM |
| O=C(c1cc(Cc2n[nH]c(=O)c3ccccc23)ccc1F)N1CCN(C(=O)C2CC2)CC1 [OLAPARIB] | > 5 µM | 2.45 µM | > 5 µM | – | > 5 µM | > 5 µM | > 5 µM | > 5 µM | > 5 µM | > 5 µM | > 5 µM | – | > 5 µM | > 5 µM | > 5 µM |
| Cn1cc(C2=C(c3ccc(Cl)cc3Cl)C(=O)NC2=O)c2ccccc21 [SB-216763] | > 10 µM | > 10 µM | > 10 µM | > 10 µM | > 10 µM | > 10 µM | > 10 µM | > 10 µM | > 10 µM | > 10 µM | > 10 µM | > 10 µM | > 10 µM | > 10 µM | > 10 µM |
